Assay results taken from ChEMBL document CHEMBL1201862, “PubChem BioAssay data set” (2004).
The source made the active and inactive calls.

What was measured:
[1] = target: T1, Polyadenylate-binding protein 1 (Homo sapiens, UniProt P11940); experiment: PABP1 MLLE–PAM2 interaction inhibitors, dose response, miRNA deadenylation inhibitor project, biochemical, fluorescence polarization, Cy5-PAM2 peptide, secondary (AID 602260); format: functional; details: read-out: IC50_Mean
[2] = target: T2, Protein Rev (Human immunodeficiency virus type 1 group M subtype B (isolate HXB2)(HIV-1), UniProt P04618); experiment: inhibitors of Rev binding to RRE RNA, dose response, biochemical, fluorescence polarization, HIV-1 (AID 434976); parameters: species or system Human immunodeficiency virus 1
T2 sequence (P04618 whole entry): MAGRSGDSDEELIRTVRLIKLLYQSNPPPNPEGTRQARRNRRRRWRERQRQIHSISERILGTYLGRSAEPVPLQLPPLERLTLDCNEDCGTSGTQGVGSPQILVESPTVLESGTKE

[3] = target: T1, Polyadenylate-binding protein 1; experiment: PABP1 MLLE–PAM2 binding inhibitor potency, dose response, biochemical, fluorescence polarization, FITC-PAM2 peptide (AID 602259); format: functional; details: read-out: IC50_Mean
[4] = target: T3, Female germline-specific tumor suppressor gld-1 (Caenorhabditis elegans, UniProt Q17339); experiment: inhibitors of GLD-1 binding to TGE RNA, dose response, biochemical, fluorescence polarization, C. elegans (AID 2802);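 note: fluorescence polarization of labeled TGE RNA bound by purified gld-1 protein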
T3 sequence (Q17339 whole entry): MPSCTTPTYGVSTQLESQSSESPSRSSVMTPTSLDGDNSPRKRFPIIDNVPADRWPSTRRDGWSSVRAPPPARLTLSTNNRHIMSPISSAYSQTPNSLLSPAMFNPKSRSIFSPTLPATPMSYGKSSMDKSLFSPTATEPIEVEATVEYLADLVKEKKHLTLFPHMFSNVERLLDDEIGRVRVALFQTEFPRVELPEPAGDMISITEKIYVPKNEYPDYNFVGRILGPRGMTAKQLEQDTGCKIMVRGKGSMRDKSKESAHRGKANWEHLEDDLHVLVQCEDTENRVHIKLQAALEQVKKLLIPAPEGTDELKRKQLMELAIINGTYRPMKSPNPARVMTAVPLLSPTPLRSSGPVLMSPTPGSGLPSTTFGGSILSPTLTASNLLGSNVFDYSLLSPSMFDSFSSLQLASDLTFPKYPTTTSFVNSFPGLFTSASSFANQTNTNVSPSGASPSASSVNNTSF

[5] = tested on: HEK293; experiment: NOD2 signaling inhibitors in MDP-stimulated cells, cell-based, uHTS, luminescence (AID 2001); format: functional; details: Homo sapiens
[6] = tested on: HEK293; experiment: NOD1 signaling inhibitors, primary screen, cell-based, luminescence, uHTS (AID 1578); format: functional; details: Homo sapiens
[7] = tested on: HEK293; experiment: cells; format: functional, cell-based; details: Homo sapiens
[8] = tested on: HEK293; experiment: cells; format: functional, cell-based; details: Homo sapiens; remark: listed apart in the source
[9] = tested on: HEK293; experiment: cells; format: functional, cell-based; details: Homo sapiens; remark: listed apart in the source
[10] = target: T4, Calpain-2 catalytic subunit (Sus scrofa, UniProt P43367); experiment: pig calpain II inhibitor potency, dose response, biochemical, fluorogenic peptide substrate (AID 1420); format: functional
T4 sequence (P43367 whole entry): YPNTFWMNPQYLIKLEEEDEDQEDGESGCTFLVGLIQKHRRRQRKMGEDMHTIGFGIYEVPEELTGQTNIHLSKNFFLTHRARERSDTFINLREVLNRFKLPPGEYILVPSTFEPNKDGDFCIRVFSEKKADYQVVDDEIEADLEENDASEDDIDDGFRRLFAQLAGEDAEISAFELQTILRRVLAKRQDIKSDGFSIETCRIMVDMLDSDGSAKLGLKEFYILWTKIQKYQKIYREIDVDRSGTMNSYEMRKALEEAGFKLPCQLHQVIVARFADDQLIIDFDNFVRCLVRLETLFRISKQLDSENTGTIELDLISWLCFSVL

[11] = target: Nucleotide-binding oligomerization domain-containing protein 2 (Homo sapiens, UniProt Q9HC29); experiment: NOD2 signaling inhibitors, cell-based, luminescence, uHTS, HEK293 (AID 1566); format: functional
Chain of Nucleotide-binding oligomerization domain-containing protein 2 (Q9HC29 whole entry, the tested form may be a part): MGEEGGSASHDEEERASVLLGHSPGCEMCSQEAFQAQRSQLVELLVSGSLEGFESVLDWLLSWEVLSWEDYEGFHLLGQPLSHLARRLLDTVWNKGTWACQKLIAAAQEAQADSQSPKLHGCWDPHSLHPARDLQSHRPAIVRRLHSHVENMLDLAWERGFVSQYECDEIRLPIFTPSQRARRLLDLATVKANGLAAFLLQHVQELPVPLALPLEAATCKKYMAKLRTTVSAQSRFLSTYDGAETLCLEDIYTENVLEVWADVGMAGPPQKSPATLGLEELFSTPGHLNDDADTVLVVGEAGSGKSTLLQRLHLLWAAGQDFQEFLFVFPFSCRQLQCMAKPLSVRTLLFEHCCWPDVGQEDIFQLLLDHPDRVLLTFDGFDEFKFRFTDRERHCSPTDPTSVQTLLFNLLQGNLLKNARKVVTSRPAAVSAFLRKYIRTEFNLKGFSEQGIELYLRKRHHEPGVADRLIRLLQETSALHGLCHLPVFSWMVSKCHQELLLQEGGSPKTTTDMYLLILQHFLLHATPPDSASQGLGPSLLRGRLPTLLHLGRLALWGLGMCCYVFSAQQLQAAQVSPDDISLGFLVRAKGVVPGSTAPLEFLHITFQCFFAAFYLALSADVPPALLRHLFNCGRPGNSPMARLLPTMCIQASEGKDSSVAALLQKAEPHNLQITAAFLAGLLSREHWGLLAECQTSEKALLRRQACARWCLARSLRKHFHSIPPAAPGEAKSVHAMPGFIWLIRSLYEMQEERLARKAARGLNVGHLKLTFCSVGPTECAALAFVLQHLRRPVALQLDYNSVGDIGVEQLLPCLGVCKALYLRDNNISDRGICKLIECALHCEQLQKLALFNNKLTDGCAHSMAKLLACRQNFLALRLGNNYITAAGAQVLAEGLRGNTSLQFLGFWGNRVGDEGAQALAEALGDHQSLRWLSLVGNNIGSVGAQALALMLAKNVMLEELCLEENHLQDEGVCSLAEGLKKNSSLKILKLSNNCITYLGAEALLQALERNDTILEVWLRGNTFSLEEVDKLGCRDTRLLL

[12] = target: T5, Corticotropin-releasing factor receptor 2/Corticotropin-releasing factor-binding protein (Homo sapiens, UniProt P24387+Q13324); experiment: activators of CRF receptor 2 with binding protein – uHTS hits, confirmation (AID 602473); format: functional; details: read-out: EC50_Mean
T5 sequence (Q13324 whole entry): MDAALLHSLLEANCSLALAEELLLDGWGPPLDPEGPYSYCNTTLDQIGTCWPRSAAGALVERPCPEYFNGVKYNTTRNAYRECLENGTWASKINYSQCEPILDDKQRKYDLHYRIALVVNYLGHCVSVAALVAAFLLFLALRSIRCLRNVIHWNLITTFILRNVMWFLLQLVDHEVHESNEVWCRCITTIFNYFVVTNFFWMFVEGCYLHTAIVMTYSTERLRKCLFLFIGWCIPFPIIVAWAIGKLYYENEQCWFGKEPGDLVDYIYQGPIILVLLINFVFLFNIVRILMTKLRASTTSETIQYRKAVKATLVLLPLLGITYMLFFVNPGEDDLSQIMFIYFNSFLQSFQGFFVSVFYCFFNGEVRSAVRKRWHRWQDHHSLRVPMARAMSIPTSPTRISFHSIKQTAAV
T5 sequence (P24387 whole entry): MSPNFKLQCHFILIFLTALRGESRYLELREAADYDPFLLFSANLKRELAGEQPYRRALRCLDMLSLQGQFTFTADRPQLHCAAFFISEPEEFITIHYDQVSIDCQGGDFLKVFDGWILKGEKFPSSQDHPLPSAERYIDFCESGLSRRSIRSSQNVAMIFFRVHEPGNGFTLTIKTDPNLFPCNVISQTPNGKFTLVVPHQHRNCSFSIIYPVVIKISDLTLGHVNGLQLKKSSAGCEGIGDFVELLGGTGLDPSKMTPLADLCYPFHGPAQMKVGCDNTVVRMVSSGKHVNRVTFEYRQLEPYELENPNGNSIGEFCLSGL

[13] = target: T5, Corticotropin-releasing factor receptor 2/Corticotropin-releasing factor-binding protein; experiment: Dose Response confirmation of uHTS hits for small molecule antagonists of the CRF-binding protein and CRF-R2 receptor complex.; format: functional; details: read-out: IC50_Mean
[14] = target: Cytochrome P450 2C9 (Homo sapiens, UniProt P11712)
Chain of Cytochrome P450 2C9 (P11712 whole entry): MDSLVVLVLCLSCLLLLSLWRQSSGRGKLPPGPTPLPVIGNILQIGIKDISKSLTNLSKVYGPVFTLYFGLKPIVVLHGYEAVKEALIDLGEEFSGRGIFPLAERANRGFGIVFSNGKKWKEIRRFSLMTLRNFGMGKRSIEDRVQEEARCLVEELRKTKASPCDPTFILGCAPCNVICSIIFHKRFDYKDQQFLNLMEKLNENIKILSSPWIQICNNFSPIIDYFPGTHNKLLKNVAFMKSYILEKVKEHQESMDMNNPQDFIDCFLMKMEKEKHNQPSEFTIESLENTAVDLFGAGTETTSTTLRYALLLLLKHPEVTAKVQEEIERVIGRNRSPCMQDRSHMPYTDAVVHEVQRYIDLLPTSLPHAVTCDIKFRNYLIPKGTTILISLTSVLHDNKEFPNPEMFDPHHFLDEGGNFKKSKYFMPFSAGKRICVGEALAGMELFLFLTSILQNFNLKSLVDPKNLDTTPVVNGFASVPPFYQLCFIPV

[15] = target: T6, X-box-binding protein 1 (Homo sapiens, UniProt P17861); format: functional, Cricetulus griseus;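 note: confirmatory dose-response counter-screen serving a CHOP assay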
T6 sequence (P17861 whole entry): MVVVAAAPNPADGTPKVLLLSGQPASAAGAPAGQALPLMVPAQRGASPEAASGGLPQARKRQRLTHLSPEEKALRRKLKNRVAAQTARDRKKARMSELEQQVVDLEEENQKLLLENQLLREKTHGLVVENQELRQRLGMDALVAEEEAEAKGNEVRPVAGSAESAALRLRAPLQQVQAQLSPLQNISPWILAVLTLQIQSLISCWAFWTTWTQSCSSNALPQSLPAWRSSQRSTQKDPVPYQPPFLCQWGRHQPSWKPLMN

[16] = target: T7, Cytochrome P450 1A2 (Homo sapiens, UniProt P05177);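 note: PubChem cytochrome P450 panel assay, CYP1A2 panel member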
T7 sequence (P05177 whole entry): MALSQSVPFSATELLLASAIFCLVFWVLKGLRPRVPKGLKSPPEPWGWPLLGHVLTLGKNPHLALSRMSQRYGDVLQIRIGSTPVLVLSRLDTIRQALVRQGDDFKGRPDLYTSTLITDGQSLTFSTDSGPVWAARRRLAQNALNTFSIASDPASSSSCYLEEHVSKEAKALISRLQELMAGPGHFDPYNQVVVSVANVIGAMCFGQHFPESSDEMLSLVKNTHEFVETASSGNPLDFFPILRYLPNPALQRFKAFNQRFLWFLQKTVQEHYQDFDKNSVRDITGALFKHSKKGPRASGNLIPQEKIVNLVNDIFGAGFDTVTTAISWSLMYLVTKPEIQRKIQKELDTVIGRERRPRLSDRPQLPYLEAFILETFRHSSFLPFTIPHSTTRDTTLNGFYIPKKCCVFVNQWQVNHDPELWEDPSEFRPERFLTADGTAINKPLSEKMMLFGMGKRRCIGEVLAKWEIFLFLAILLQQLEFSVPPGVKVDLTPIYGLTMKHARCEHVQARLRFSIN

[17] = target: DNA damage-inducible transcript 3 protein (Mus musculus, UniProt P35639); format: functional, Cricetulus griseus
Chain of DNA damage-inducible transcript 3 protein (P35639 whole entry): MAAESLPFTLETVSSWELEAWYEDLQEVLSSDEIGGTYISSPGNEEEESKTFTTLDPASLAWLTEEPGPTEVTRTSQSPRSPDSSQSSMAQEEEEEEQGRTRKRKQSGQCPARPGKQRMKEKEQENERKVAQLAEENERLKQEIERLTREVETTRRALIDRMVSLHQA

[18] = target: Beta-galactosidase (Escherichia coli, UniProt Q8VNN2); format: functional
Chain of Beta-galactosidase (Q8VNN2 whole entry): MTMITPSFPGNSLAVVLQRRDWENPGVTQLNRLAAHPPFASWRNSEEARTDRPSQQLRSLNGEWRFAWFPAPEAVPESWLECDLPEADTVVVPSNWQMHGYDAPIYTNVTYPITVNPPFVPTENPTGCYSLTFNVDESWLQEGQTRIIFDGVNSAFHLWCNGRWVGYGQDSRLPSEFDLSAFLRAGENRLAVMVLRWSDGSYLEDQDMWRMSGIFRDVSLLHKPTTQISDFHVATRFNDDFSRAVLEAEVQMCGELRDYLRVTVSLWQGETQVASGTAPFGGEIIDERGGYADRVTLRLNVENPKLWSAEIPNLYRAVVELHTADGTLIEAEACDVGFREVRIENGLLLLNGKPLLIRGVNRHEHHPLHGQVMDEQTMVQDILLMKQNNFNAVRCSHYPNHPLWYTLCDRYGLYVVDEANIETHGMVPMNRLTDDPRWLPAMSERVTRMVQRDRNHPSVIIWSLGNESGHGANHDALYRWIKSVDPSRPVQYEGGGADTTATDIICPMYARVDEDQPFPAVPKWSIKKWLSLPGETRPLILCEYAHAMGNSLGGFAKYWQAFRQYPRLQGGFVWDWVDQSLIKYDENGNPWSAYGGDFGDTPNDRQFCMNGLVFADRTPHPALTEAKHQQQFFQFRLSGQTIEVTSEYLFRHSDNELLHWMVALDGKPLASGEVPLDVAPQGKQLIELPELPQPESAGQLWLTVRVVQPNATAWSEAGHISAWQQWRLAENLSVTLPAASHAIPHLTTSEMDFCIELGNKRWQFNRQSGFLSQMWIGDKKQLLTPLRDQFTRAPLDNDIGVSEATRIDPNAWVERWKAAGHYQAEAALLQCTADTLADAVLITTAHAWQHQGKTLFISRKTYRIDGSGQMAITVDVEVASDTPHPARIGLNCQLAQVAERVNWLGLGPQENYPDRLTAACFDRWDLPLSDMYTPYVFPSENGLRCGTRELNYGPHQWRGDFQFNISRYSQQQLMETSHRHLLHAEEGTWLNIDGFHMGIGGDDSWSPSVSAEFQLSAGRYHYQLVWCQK

[19] = target: Heat shock protein HSP 90-alpha (Homo sapiens, UniProt P07900); format: functional, organism-based
[20] = target: T8, Kappa-type opioid receptor (Homo sapiens, UniProt P41145); format: functional
T8 sequence (P41145 whole entry): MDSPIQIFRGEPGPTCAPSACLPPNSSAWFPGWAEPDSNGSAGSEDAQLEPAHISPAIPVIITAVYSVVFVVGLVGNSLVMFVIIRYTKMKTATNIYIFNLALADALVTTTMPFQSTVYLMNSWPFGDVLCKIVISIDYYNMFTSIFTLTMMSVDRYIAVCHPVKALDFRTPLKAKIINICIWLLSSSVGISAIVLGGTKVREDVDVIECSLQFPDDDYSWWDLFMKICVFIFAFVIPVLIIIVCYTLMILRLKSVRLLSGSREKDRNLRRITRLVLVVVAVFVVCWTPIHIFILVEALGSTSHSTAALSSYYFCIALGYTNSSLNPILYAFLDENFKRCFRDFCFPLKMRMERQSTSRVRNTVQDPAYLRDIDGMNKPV

[21] = target: T8, Kappa-type opioid receptor; format: functional; remark: listed apart in the source

T1 sequence (P11940 whole entry): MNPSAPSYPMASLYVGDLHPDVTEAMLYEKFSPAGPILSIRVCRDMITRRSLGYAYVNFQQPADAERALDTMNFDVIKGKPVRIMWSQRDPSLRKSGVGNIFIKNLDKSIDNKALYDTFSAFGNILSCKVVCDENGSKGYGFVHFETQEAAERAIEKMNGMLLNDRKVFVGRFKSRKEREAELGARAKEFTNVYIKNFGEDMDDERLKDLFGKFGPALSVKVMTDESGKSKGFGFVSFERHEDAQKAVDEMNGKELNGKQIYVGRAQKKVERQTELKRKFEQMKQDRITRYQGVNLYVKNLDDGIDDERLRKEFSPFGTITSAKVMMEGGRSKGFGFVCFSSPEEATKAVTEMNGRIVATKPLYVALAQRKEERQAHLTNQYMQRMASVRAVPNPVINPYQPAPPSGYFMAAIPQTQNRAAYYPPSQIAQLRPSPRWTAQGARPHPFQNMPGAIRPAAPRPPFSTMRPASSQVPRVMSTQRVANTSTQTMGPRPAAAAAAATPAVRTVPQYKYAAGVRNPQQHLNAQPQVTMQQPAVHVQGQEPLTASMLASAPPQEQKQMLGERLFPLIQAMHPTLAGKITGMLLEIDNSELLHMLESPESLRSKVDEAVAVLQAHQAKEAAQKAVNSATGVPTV

CC(=O)Nc1ccc2nc3ccccc3nc2c1
IC50 [1]: > 66 µM (inactive) | IC50 [2]: 14.8 µM (not active) | IC50 [3]: 44.9 µM (inactive) | IC50 [4]: 5.86 µM (active)

CCc1ccc(C(=O)OCC(=O)c2c(N)n(CC(C)C)c(=O)n(C)c2=O)cc1
IC50 [5]: 15.6 µM (inactive) | EC50 [6]: 12.4 µM (active) | IC50 [7]: > 20 µM (inactive) | IC50 [8]: 13.8 µM (active) | IC50 [9]: 8.39 µM (active) | IC50 [10]: 2.96 µM (not active) | EC50 [11]: > 20 µM (inactive)

Cc1nc2ccc(NS(=O)(=O)c3ccc(C)c(C)c3)cc2s1
IC50 [5]: 10.4 µM (inactive) | EC50 [6]: 3.65 µM (active) | IC50 [7]: > 20 µM (inactive) | EC50 [12]: > 53 µM (inactive) | IC50 [8]: > 20 µM (inactive) | IC50 [9]: 10.9 µM (active) | IC50 [13]: > 47.1 µM (inactive) | EC50 [11]: 9.53 µM (active)

Cc1ccc(-c2nn(C)c(=O)c3ccccc23)cc1CNC(=O)Cn1nc(-c2ccccc2)c2ccccc2c1=O
AC50 [14]: 11.2 µM (inconclusive) | Absolute IC50 (XBP1) [15]: 10 µM | AC50 [16]: 31.6 µM (inconclusive) | Absolute IC50 (CHOP) [17]: 10 µM

O=C(C#Cc1ccccc1)c1ccc([N+](=O)[O-])cc1
EC50 [18]: > 31.5 µM (inactive) | AC50 [19]: 1.38 µM (active) | IC50 [20]: 16.3 µM | IC50 [21]: 9.68 µM (active)

Cc1ccccc1NC(=N)Nc1ccccc1C
IC50 [1]: > 66 µM (inactive) | IC50 [2]: 8.31 µM (active) | IC50 [3]: 19.8 µM (active) | IC50 [4]: 5.2 µM (active)
